Results published in ChEMBL document CHEMBL4368862, “Design, synthesis, and anticancer activity evaluation of irreversible allosteric inhibitors of the ubiquitin-conjugating enzyme Ube2g2” (Medchemcomm, 2018).
Active and inactive are the calls of the source. The rule behind the calls is not given here.

Columns and labels:
[1] = target: T1, Ubiquitin-conjugating enzyme E2 G2 (Homo sapiens) (UniProt P60604); experiment: (§1) Binding affinity to recombinant TEV cleavage site-fused-His6-tagged Ube2g2 (unknown origin) expressed in Escherichia coli Rosetta2 (DE3) assessed as molecular weight of compound-protein conjugate at 5 uL measured after overnight incubation at pH 8.5 by LC/MS analysis (reference value: 18491 Da)
T1 sequence (whole entry): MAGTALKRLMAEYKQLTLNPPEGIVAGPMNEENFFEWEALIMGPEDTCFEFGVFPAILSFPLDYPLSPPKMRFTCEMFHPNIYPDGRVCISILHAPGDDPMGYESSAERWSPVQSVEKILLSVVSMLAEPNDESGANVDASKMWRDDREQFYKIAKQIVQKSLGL

[2] = target: T1, Ubiquitin-conjugating enzyme E2 G2 (Homo sapiens); experiment: Binding affinity to recombinant TEV cleavage site-fused-His6-tagged Ube2g2 (unknown origin) expressed in Escherichia coli Rosetta2 (DE3) assessed as compound-protein complex formation at 5 uL measured after overnight incubation at pH 7.4 by LC/MS analysis
[3] = target: T1, Ubiquitin-conjugating enzyme E2 G2 (Homo sapiens); experiment: as §1, with “assessed as modification of Cys75 residue by measuring molecular weight” for “assessed as molecular weight”
[4] = target: T1, Ubiquitin-conjugating enzyme E2 G2 (Homo sapiens); experiment: as §1, with “assessed as modification of Cys48 residue by measuring molecular weight” for “assessed as molecular weight”
[5] = target: T1, Ubiquitin-conjugating enzyme E2 G2 (Homo sapiens); experiment: as §1, with “assessed as modification of Cys89 residue by measuring molecular weight” for “assessed as molecular weight”

SMILES	Activity [1]	Activity [2]	Activity [3] [Da]	Activity [4] [Da]	Activity [5] [Da]
C=CC(=O)N[C@H](Cc1ccc(-c2cc(Cl)cc(Cl)c2)cc1)[C@@H](O)[C@H](O)C(=O)OCC	18900 Da	inactive	–	–	–
C=CCC(=O)N[C@H](Cc1ccc(-c2cc(Cl)cc(Cl)c2)cc1)[C@@H](O)[C@H](O)C(=O)O	inactive	inactive	–	–	–
CCOC(=O)/C=C/[C@H](Cc1ccc(-c2cc(Cl)cc(Cl)c2)cc1)NC(=O)OC(C)(C)C	18900 Da	inactive	–	–	–
C=CCC(=O)N[C@H](/C=C/C(=O)OCC)Cc1ccc(-c2cc(Cl)cc(Cl)c2)cc1	inactive	inactive	–	–	–
C=CC(=O)N[C@H](/C=C/C(=O)OCC)Cc1ccc(-c2cc(Cl)cc(Cl)c2)cc1	18900 Da	inactive	–	–	–
C=CCC(=O)N[C@@H](/C=C/C(=O)O)Cc1ccc(-c2cc(Cl)cc(Cl)c2)cc1	inactive	inactive	–	–	–
C=CCC(=O)N[C@H](Cc1ccc(-c2cc(Cl)cc(Cl)c2)cc1)[C@@H](O)[C@H](O)C(=O)OCC	inactive	inactive	–	–	–
C=CC(=O)N[C@@H](/C=C/C(=O)O)Cc1ccc(-c2cc(Cl)cc(Cl)c2)cc1	18900 Da	inactive	–	–	–
C=CCC(=O)N[C@H](CO)Cc1ccc(-c2cc(Cl)cc(Cl)c2)cc1	inactive	inactive	–	–	–
C=CC(=O)N[C@@H](CO)Cc1ccc(-c2cc(Cl)cc(Cl)c2)cc1	18800 to 19200 Da	inactive	–	–	–
C=CC(=O)N[C@@H](Cc1ccc(-c2cc(Cl)cc(Cl)c2)cc1)[C@H](O)[C@@H](O)C(=O)OCC	18900 Da	inactive	–	–	–
C=CCC(=O)N[C@@H](CO)Cc1ccc(-c2cc(Cl)cc(Cl)c2)cc1	inactive	inactive	–	–	–
C=CCC(=O)N[C@@H](Cc1ccc(-c2cc(Cl)cc(Cl)c2)cc1)[C@H](O)[C@@H](O)C(=O)OCC	inactive	inactive	–	–	–
C=CC(=O)N[C@@H](Cc1ccc(-c2cc(Cl)cc(Cl)c2)cc1)[C@H](O)[C@@H](O)C(=O)O	inactive	inactive	–	–	–
C=CCC(=O)N[C@@H](/C=C/C(=O)OCC)Cc1ccc(-c2cc(Cl)cc(Cl)c2)cc1	inactive	inactive	–	–	–
C=CCC(=O)N[C@@H](Cc1ccc(-c2cc(Cl)cc(Cl)c2)cc1)[C@H](O)[C@@H](O)C(=O)O	inactive	inactive	–	–	–
C=CC(=O)N[C@H](Cc1ccc(-c2cc(Cl)cc(Cl)c2)cc1)[C@@H](O)[C@H](O)C(=O)O	18900 to 19300 Da	inactive	–	–	–
CC(C)(C)OC(=O)N[C@H](C=O)Cc1ccc(-c2cc(Cl)cc(Cl)c2)cc1	18900 to 19300 Da	inactive	–	–	–
C=CC(=O)N[C@@H](/C=C/C(=O)OCC)Cc1ccc(-c2cc(Cl)cc(Cl)c2)cc1	18900 Da	inactive	–	–	–
C=CC(=O)N[C@H](CO)Cc1ccc(-c2cc(Cl)cc(Cl)c2)cc1	–	inactive	19200	18800	19500
